# Measured values from patent US10562902B2, “IRAK4 inhibitor and use thereof” (BEIJING HANMI PHARMACEUTICAL CO., LTD., priority 2015, dated 2020).
# Target: IRAK4 kinase (Homo sapiens (Human), UniProt Q9NWZ3)
# Experiment: IRAK4 kinase activity inhibition assay
# Assay type: biochemical
# Settings: ADP-Glo kinase assay, 10 μM ATP, MBP substrate
# Procedure: IRAK4 kinase (purchased from Life Technologies, Cat. No.: PR5612U) was diluted to 2 folds of the final concentration (the final concentration is […]) with reaction buffer (40 mM Tris-HC1, pH 7.5; 20 mM MgCl2; 0.1 mg/mL BSA; 1 mM DTT), and added to a 384-well plate at 5 μL/well. The test drugs were 10-fold serial diluted from 10 μM to set six concentration points and added to the test wells of the 384-well plate at 2.5 μL/well. After incubation for 10 min at 25° C., 10 μM of ATP and 0.1 μg/μL of an enzyme reaction substrate, myelin basic protein MBP (purchased from Signal Chem, Cat. No.: M42-51N) were added at 2.5 μL/well, and reacted at 25° C. for 60 minutes. After the reaction was completed, the kinase activity assay was performed using the ADP-Glo™ kinase assay kit (purchased from Promega, Cat. No.: V9102) according to the manufacture's instruction, i.e., 10 μL of ADP-Glo reaction reagent was first added and reacted at 25° C. for 40 minutes, 10 μL of the reaction mixture was taken and mixed with 10 μL of ADP-Glo detection reagent, and reacted at 25° C. for 30 minutes. The kinase activity was then detected, and the IC50 values of the test drugs were calculated.
# Sequence of IRAK4 kinase (Q9NWZ3 whole entry): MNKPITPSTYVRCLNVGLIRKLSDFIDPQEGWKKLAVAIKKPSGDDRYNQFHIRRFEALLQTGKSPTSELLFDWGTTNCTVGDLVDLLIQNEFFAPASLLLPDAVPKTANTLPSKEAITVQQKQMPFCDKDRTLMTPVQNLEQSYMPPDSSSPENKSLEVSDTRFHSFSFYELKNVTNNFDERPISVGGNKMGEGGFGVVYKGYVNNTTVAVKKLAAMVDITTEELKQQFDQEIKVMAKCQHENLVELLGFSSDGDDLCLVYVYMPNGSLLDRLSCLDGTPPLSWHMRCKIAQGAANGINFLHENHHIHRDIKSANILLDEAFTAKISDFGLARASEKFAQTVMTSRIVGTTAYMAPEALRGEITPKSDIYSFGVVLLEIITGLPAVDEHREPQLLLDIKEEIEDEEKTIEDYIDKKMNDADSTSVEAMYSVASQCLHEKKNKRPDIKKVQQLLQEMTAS
row,SMILES,IC50 [nM]
1,Cc1cc(Nc2nc(NC3CCC(=O)CC3)c3c(ccn3-c3cnn(C)c3)n2)sn1 [Example 23],100 to 1000
2,Cc1cc(Nc2nc(N[C@H]3CC[C@](C)(O)CC3)c3c(ccn3-c3cnn(C)c3)n2)sn1 [Example 24],100 to 1000
3,CO[C@H]1CC[C@@H](Nc2nc(Nc3cc(C)ns3)nc3ccn(-c4cnn(C)c4)c23)CC1 [Example 25],100 to 1000
4,CC(=O)N[C@H]1CC[C@H](Nc2nc(Nc3cc(C)ns3)nc3ccn(-c4cnn(C)c4)c23)CC1 [Example 27],100 to 1000
5,Cc1cc(Nc2nc(N[C@H]3CC[C@H](N4CCCCC4)CC3)c3c(ccn3-c3cnn(C)c3)n2)sn1 [Example 28],100 to 1000
6,Cc1cc(Nc2nc(NC3CCN(C)CC3)c3c(ccn3-c3cnn(C)c3)n2)sn1 [Example 30],100 to 1000
7,CNC(=O)c1ccc(Nc2nc(Nc3cc(C)ns3)nc3ccn(-c4cnn(C)c4)c23)cc1 [Example 31],100 to 1000
8,Cc1cc(Nc2nc(NC(C)C)c3c(ccn3-c3cnn(C4CCOCC4)c3)n2)sn1 [Example 32],100 to 1000
9,Cc1cc(Nc2nc(N[C@H]3CC[C@H](O)CC3)c3c(ccn3-c3ccccc3)n2)sn1 [Example 33],100 to 1000
10,Cc1cc(Nc2nc(N[C@H]3CC[C@H](O)CC3)c3c(ccn3-c3ccc(F)cc3)n2)sn1 [Example 34],100 to 1000
11,Cc1cc(Nc2nc(NC(C)C)c3c(ccn3-c3cccc(C(=O)O)c3)n2)sn1 [Example 35],1000 to 10000
12,Cc1cc(Nc2nc(NC(C)C)c3c(ccn3-c3cccc(S(C)(=O)=O)c3)n2)sn1 [Example 36],1000 to 10000
13,Cc1cc(Nc2nc(NC(C)C)c3c(ccn3-c3cccnc3)n2)sn1 [Example 37],100 to 1000
14,Cc1cc(Nc2nc(NC(C)C)c3c(ccn3-c3ccc(N)nc3)n2)sn1 [Example 39],1000 to 10000
15,Cc1cc(Nc2nc(NC3CCOCC3)c3c(ccn3-c3ccncc3)n2)sn1 [Example 40],100 to 1000
16,Cc1cc(Nc2nc(NC(C)C)c3c(ccn3-c3ccnc(O)c3)n2)sn1 [Example 41],100 to 1000
17,COc1cc(-n2ccc3nc(Nc4cc(C)ns4)nc(NC(C)C)c32)ccn1 [Example 42],100 to 1000
18,Cc1cc(Nc2nc(NC(C)C)c3c(ccn3-c3ccc4c(c3)OCO4)n2)sn1 [Example 43],100 to 1000
19,Cc1cc(Nc2nc(NC(C)C)c3c(ccn3-c3cccc4c3cnn4C)n2)sn1 [Example 44],1000 to 10000
20,"CC(C)Nc1nc(Nc2cnn(C3CCCCC3)c2)nc2ccn(-c3cnn(C)c3)c12 [Example 45, N^2-(1-cyclohexyl-1H-pyrazol-4-yl)-N^4-isopropyl-5-(1-methyl-1H-pyrazol-4-yl)-5H-pyrrolo[3,2-d]pyrimidin-2,4-diamine]",100 to 1000
21,Cn1cc(Nc2nc(N[C@H]3CC[C@H](O)CC3)c3c(ccn3-c3cnn(C)c3)n2)cn1 [Example 46],100 to 1000
22,CC(C)Nc1nc(Nc2cnn(C3CCOCC3)c2)nc2ccn(-c3cnn(C)c3)c12 [Example 47],100 to 1000
23,CN(C)C(=O)c1csc(Nc2nc(NC3CCOCC3)c3c(ccn3-c3cnn(C)c3)n2)c1 [Example 50],100 to 1000
24,CN(C)C(=O)c1cc(Nc2nc(NC3CCOCC3)c3c(ccn3-c3cnn(C)c3)n2)cs1 [Example 52],100 to 1000
25,"Cc1cc(Nc2nc(N(C)C3CCOCC3)c3c(ccn3-c3cnn(C)c3)n2)sn1 [Example 53, N^4-methyl-N^2-(3-methylisothiazol-5-yl)-5-(1-methyl-1H-pyrazol-4-yl)-N^4-(tetrahydropyran-4-yl)-5H-pyrrolo[3,2-d]pyrimidine-2,4-diamine]",100 to 1000

# Second part, the compound after the results:
row,IC50 [nM],SMILES
1,≤ 100,"Cc1cc(Nc2nc(N[C@H]3CC[C@H](O)CC3)c3c(ccn3-c3cnn(C)c3)n2)sn1 [Example 1, trans-4-[2-(3-methylisothiazol-5-ylamino)-5-(1-methyl-1H-pyrazol-4-yl)-5H-pyrrolo[3,2-d]pyrimidin-4-ylamino]cyclohexanol]"
2,≤ 100,Cc1cc(Nc2nc(NC(C)C)c3c(ccn3-c3cnn(C)c3)n2)sn1 [Example 2]
3,100 to 1000,Cc1cc(Nc2nc(NCCO)c3c(ccn3-c3cnn(C)c3)n2)sn1 [Example 3]
4,≤ 100,Cc1cc(Nc2nc(NCCCO)c3c(ccn3-c3cnn(C)c3)n2)sn1 [Example 4]
5,≤ 100,Cc1cc(Nc2nc(NCCCCO)c3c(ccn3-c3cnn(C)c3)n2)sn1 [Example 5]
6,100 to 1000,CNC(=O)CCNc1nc(Nc2cc(C)ns2)nc2ccn(-c3cnn(C)c3)c12 [Example 6]
7,100 to 1000,CNC(=O)CCCNc1nc(Nc2cc(C)ns2)nc2ccn(-c3cnn(C)c3)c12 [Example 7]
8,100 to 1000,CC(=O)NCCNc1nc(Nc2cc(C)ns2)nc2ccn(-c3cnn(C)c3)c12 [Example 8]
9,100 to 1000,CC(=O)NCCCNc1nc(Nc2cc(C)ns2)nc2ccn(-c3cnn(C)c3)c12 [Example 9]
10,100 to 1000,Cc1cc(Nc2nc(NCCN3CCOCC3)c3c(ccn3-c3cnn(C)c3)n2)sn1 [Example 10]
11,100 to 1000,Cc1cc(Nc2nc(NCCCN3CCOCC3)c3c(ccn3-c3cnn(C)c3)n2)sn1 [Example 11]
12,100 to 1000,Cc1cc(Nc2nc(NC3CCC3)c3c(ccn3-c3cnn(C)c3)n2)sn1 [Example 12]
13,≤ 100,Cc1cc(Nc2nc(NC3CC(O)C3)c3c(ccn3-c3cnn(C)c3)n2)sn1 (stereo not drawn) [Example 13]
14,≤ 100,Cc1cc(Nc2nc(N[C@H]3C[C@@](C)(O)C3)c3c(ccn3-c3cnn(C)c3)n2)sn1 [Example 14]
15,100 to 1000,Cc1cc(Nc2nc(N[C@H]3C[C@@H](N4CCCCC4)C3)c3c(ccn3-c3cnn(C)c3)n2)sn1 [Example 15]
16,100 to 1000,Cc1cc(Nc2nc(N[C@H]3C[C@H](N4CCCCC4)C3)c3c(ccn3-c3cnn(C)c3)n2)sn1 [Example 16]
17,100 to 1000,Cc1cc(Nc2nc(NC3CCCC3)c3c(ccn3-c3cnn(C)c3)n2)sn1 [Example 17]
18,≤ 100,Cc1cc(Nc2nc(N[C@H]3CC[C@@H](O)C3)c3c(ccn3-c3cnn(C)c3)n2)sn1 [Example 18]
19,≤ 100,Cc1cc(Nc2nc(N[C@@H]3C[C@H](CO)[C@@H](O)[C@H]3O)c3c(ccn3-c3cnn(C)c3)n2)sn1 [Example 19]
20,100 to 1000,Cc1cc(Nc2nc(N[C@@H]3CCOC3)c3c(ccn3-c3cnn(C)c3)n2)sn1 [Example 20]
21,100 to 1000,Cc1cc(Nc2nc(N[C@H]3CCOC3)c3c(ccn3-c3cnn(C)c3)n2)sn1 [Example 21]
22,100 to 1000,Cc1cc(Nc2nc(NC3CCCCC3)c3c(ccn3-c3cnn(C)c3)n2)sn1 [Example 22]
23,≤ 100,CO[C@H]1CC[C@H](Nc2nc(Nc3cc(C)ns3)nc3ccn(-c4cnn(C)c4)c23)CC1 [Example 26]
24,≤ 100,Cc1cc(Nc2nc(NC3CCOCC3)c3c(ccn3-c3cnn(C)c3)n2)sn1 [Example 29]
25,≤ 100,Cc1cc(Nc2nc(N[C@H]3CC[C@H](O)CC3)c3c(ccn3-c3cccnc3)n2)sn1 [Example 38]
26,≤ 100,CCNC(=O)c1csc(Nc2nc(NC3CCOCC3)c3c(ccn3-c3cnn(C)c3)n2)c1 [Example 49]
27,≤ 100,CNC(=O)c1cc(Nc2nc(NC3CCOCC3)c3c(ccn3-c3cnn(C)c3)n2)cs1 [Example 51]
28,≤ 100,"Cc1cc(Nc2nc(OC(C)C)c3c(ccn3-c3cnn(C)c3)n2)sn1 [Example 54, [4-isopropoxy-5-(1-methyl-1H-pyrazol-4-yl)-5H-pyrrolo[3,2-d]pyrimidin-2-yl]-(3-methylisothiazol-5-yl)amine]"
29,≤ 100,COCCOc1nc(Nc2cc(C)ns2)nc2ccn(-c3cnn(C)c3)c12 [Example 55]
